{"source": "patent EP2243483A1", "about": "“Amlodipine salt compositions for topical application” (priority 2009, dated 2010)", "origin": "cited, not measured here", "key": {"[1]": {"conditions": "hypertensive patients"}, "[2]": {"conditions": "tablets"}, "[3]": {"biological_target": "T1, 2B6 (Homo sapiens, UniProt P20813)", "T1 sequence (P20813 1-491)": "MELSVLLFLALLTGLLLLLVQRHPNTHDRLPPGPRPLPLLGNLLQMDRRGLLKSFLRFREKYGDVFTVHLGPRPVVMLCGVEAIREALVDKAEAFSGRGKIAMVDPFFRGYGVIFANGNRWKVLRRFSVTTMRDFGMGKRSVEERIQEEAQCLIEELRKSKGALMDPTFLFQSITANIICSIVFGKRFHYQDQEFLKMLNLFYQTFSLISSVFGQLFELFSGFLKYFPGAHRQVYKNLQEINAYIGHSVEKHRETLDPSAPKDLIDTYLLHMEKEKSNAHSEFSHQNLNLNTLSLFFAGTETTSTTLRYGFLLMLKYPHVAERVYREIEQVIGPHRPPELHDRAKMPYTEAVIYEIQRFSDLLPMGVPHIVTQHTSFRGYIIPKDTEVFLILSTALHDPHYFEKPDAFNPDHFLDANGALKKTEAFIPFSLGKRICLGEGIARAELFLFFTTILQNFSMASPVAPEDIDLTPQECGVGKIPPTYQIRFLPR"}, "[4]": {"tested_on": "2C8/9"}, "[5]": {"biological_target": "2D6 (Homo sapiens, UniProt P10635)", "sequence (P10635 whole entry)": "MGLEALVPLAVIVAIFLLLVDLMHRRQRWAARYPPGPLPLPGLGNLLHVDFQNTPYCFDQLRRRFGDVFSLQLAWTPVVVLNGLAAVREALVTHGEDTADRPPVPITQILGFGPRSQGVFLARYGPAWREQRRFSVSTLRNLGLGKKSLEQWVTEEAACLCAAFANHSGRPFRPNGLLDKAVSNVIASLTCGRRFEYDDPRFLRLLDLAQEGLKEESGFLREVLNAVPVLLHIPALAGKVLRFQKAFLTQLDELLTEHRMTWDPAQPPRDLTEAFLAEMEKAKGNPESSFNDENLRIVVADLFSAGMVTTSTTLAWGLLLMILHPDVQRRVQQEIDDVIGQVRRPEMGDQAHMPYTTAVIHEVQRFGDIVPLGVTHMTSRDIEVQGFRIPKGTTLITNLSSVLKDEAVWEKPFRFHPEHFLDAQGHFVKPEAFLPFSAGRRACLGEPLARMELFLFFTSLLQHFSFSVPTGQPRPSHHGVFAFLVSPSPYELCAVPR"}, "[6]": {"biological_target": "3A4 (Homo sapiens, UniProt P08684)", "sequence (P08684 whole entry)": "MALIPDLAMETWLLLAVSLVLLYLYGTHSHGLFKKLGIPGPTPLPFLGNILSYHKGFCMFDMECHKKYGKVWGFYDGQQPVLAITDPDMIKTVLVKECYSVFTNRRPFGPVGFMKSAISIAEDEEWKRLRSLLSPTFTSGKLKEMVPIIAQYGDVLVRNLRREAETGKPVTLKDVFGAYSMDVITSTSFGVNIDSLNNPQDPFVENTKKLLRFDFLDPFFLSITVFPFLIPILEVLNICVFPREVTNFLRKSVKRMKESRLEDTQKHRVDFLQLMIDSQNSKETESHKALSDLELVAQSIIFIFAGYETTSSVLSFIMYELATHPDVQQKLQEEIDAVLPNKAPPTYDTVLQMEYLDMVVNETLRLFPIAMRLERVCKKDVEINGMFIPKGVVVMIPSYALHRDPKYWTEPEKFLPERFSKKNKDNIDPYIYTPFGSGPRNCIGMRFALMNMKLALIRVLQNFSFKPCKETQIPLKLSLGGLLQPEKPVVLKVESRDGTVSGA"}, "[7]": {"biological_target": "T2, CYP 1A2 isoenzyme (Homo sapiens, UniProt P05177)", "T2 sequence (P05177 1-516)": "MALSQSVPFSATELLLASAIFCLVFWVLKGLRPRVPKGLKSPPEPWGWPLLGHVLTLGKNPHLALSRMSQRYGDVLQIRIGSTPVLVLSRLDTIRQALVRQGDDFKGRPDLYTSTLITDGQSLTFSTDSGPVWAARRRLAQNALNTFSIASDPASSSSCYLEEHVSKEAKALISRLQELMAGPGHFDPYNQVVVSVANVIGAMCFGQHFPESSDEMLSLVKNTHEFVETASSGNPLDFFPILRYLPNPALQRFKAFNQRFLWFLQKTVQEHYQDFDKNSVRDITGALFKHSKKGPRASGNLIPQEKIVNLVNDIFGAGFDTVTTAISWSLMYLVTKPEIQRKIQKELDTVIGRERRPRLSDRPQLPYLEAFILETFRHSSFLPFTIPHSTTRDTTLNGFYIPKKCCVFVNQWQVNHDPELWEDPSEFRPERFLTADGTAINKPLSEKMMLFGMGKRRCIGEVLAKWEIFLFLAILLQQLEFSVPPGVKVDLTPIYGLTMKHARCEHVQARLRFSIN"}, "[8]": {"biological_target": "T3, 2A6 (Homo sapiens, UniProt P11509)", "T3 sequence (P11509 1-494)": "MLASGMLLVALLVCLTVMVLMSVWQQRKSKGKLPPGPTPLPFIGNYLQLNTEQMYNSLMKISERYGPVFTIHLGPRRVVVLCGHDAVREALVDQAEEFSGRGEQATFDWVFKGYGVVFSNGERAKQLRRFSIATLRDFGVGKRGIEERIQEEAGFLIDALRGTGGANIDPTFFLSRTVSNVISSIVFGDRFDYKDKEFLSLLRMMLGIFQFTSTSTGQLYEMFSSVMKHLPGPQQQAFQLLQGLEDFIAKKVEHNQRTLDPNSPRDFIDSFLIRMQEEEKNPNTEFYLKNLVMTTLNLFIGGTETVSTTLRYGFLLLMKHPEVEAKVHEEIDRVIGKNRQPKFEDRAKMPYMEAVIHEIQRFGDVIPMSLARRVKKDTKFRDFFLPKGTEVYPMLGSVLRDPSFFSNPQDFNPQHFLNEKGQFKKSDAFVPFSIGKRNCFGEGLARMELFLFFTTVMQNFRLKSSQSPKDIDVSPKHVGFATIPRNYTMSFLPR"}}, "note": "Structures can show the parent of a compound that is named as a salt.", "data": [{"smiles": "CCOC(=O)C1=C(COCCN)NC(C)=C(C(=O)OC)C1c1ccccc1Cl", "note": "(stereo not shown) [amlodipine maleate]", "values": [{"measurement": "circulating drug bound to plasma protein", "setting": "[1]", "value": "Approximately 93%"}, {"measurement": "converted to inactive metabolites via hepatic metabolism", "setting": "in vivo, po", "value": "About 90%"}, {"measurement": "time of peak concentration", "setting": "in vivo, po", "value": "6 to 12", "unit": "h"}, {"measurement": "time required for therapeutic response, initially", "setting": "[2]", "value": 7, "unit": "days"}, {"measurement": "time required for therapeutic response, peak", "setting": "[2]", "value": "about 14 days"}]}, {"smiles": "CCOC(=O)C1=C(COCCN)NC(C)=C(C(=O)OC)C1c1ccccc1Cl", "note": "(stereo not shown) [amlodipine]", "values": [{"measurement": "inhibition", "setting": "[3]", "value": "weaker inhibition"}, {"measurement": "inhibition", "setting": "[4]", "value": "weaker inhibition"}, {"measurement": "inhibition", "setting": "[5]", "value": "weaker inhibition"}, {"measurement": "inhibition", "setting": "[6]", "value": "weaker inhibition"}, {"measurement": "parent compound excreted in the urine", "setting": "in vivo, po", "value": 10, "unit": "%"}, {"measurement": "metabolites excreted in the urine", "setting": "urine, oral", "value": 60, "unit": "%"}, {"measurement": "inhibition", "setting": "[7]", "value": "moderately inhibited"}, {"measurement": "inhibition", "setting": "[8]", "value": "weaker inhibition"}]}]}
